The supplement of paper PMC11451515

Tested on: NOMO1
Test: cell viability relative to DMSO control; higher = less cytotoxic
Settings: 48 h
Summary of the method: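 Viability, reported as a per-plate percentage of DMSO wells with cell-free wells as background, came from CellTiter-Glo One luminescence. Reading took place after 48 h at 37°C. Before that, NOMO1 or SEM (500 cells/well) or P12-Ichikawa (1000 cells/well) leukemia cells, adapted for at least four passages in each medium, were seeded in 1536-well plates (5 μl) and pin-dosed with library compounds in DMSO, 47 μM to 0.79 nM over 11 threefold points.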

[1] = HPLM + 10% dialyzed FBS, 0.000781 µM
[2] = HPLM + 10% dialyzed FBS, 0.00234 µM
[3] = HPLM + 10% dialyzed FBS, 0.00702 µM
[4] = HPLM + 10% dialyzed FBS, 0.0211 µM
[5] = HPLM + 10% dialyzed FBS, 0.0632 µM
[6] = HPLM + 10% dialyzed FBS, 0.19 µM
[7] = HPLM + 10% dialyzed FBS, 0.569 µM
[8] = HPLM + 10% dialyzed FBS, 1.71 µM
[9] = HPLM + 10% dialyzed FBS, 5.12 µM
[10] = HPLM + 10% dialyzed FBS, 15.4 µM
[11] = HPLM + 10% dialyzed FBS, 46.1 µM
[12] = RPMI 5 mM glucose + 10% FBS, 0.000781 µM
[13] = RPMI 5 mM glucose + 10% FBS, 0.00234 µM
[14] = RPMI 5 mM glucose + 10% FBS, 0.00702 µM
[15] = RPMI 5 mM glucose + 10% FBS, 0.0211 µM
[16] = RPMI 5 mM glucose + 10% FBS, 0.0632 µM
[17] = RPMI 5 mM glucose + 10% FBS, 0.19 µM
[18] = RPMI 5 mM glucose + 10% FBS, 0.569 µM
[19] = RPMI 5 mM glucose + 10% FBS, 1.71 µM
[20] = RPMI 5 mM glucose + 10% FBS, 5.12 µM
[21] = RPMI 5 mM glucose + 10% FBS, 15.4 µM
[22] = RPMI 5 mM glucose + 10% FBS, 46.1 µM
[23] = RPMI 5 mM glucose + 10% dialyzed FBS, 0.000781 µM
[24] = RPMI 5 mM glucose + 10% dialyzed FBS, 0.00234 µM
[25] = RPMI 5 mM glucose + 10% dialyzed FBS, 0.00702 µM
[26] = RPMI 5 mM glucose + 10% dialyzed FBS, 0.0211 µM
[27] = RPMI 5 mM glucose + 10% dialyzed FBS, 0.0632 µM
[28] = RPMI 5 mM glucose + 10% dialyzed FBS, 0.19 µM
[29] = RPMI 5 mM glucose + 10% dialyzed FBS, 0.569 µM
[30] = RPMI 5 mM glucose + 10% dialyzed FBS, 1.71 µM
[31] = RPMI 5 mM glucose + 10% dialyzed FBS, 5.12 µM
[32] = RPMI 5 mM glucose + 10% dialyzed FBS, 15.4 µM
[33] = RPMI 5 mM glucose + 10% dialyzed FBS, 46.1 µM

SMILES | cell viability [1] | cell viability [2] | cell viability [3] | cell viability [4] | cell viability [5] | cell viability [6] | cell viability [7] | cell viability [8] | cell viability [9] | cell viability [10] | cell viability [11] | cell viability [12] | cell viability [13] | cell viability [14] | cell viability [15] | cell viability [16] | cell viability [17] | cell viability [18] | cell viability [19] | cell viability [20] | cell viability [21] | cell viability [22] | cell viability [23] | cell viability [24] | cell viability [25] | cell viability [26] | cell viability [27] | cell viability [28] | cell viability [29] | cell viability [30] | cell viability [31] | cell viability [32] | cell viability [33]
CCOC(=O)c1ccc(C#Cc2ccc3c(c2)C(C)(C)CCS3)nc1 | 101% | 109% | 122% | 108% | 86.1% | 104% | 103% | 101% | 97.8% | 89.1% | 79.6% | 94% | 108% | 91.6% | 100% | 93.3% | 94% | 107% | 96.8% | 99.4% | 98.6% | 94.2% | 90% | 108% | 104% | 109% | 97.9% | 90.2% | 90.7% | 94.9% | 94.6% | 99.6% | 88.7%
COc1ccc(-c2c(-c3ccc(O)cc3O)n[nH]c2C)cc1 | 108% | 115% | 105% | 115% | 126% | 117% | 104% | 123% | 83% | 102% | 59% | 89% | 98.4% | 105% | 101% | 100% | 113% | 105% | 111% | 106% | 102% | 90.3% | 91% | 98% | 102% | 124% | 113% | 110% | 121% | 99.1% | 109% | 99.1% | 77.1%
CC(=O)SCC(Cc1ccccc1)C(=O)NCC(=O)OCc1ccccc1 (stereo not drawn) | 88.4% | 85.1% | 102% | 104% | 102% | 106% | 107% | 88.9% | 63.9% | 14.7% | 9.71% | 81.7% | 82.6% | 80.3% | 93.4% | 84.3% | 89.4% | 95.2% | 95% | 72.1% | 15.1% | 10.7% | 78.2% | 74.3% | 86.7% | 85.6% | 96.9% | 98.4% | 95.6% | 76.8% | 65.6% | 13.4% | 13.2%
CCOc1ccccc1OCCNC(C)Cc1ccc(OC)c([S+](N)(=O)[O-])c1 (stereo not drawn) | 103% | 105% | 96.8% | 121% | 129% | 119% | 120% | 114% | 109% | 115% | 102% | 98.8% | 110% | 115% | 117% | 105% | 112% | 102% | 101% | 109% | 102% | 101% | 90.1% | 108% | 110% | 112% | 111% | 108% | 109% | 101% | 117% | 104% | 105%
CN(C)CCC=C1C2=C(C=CC=C2)\C=C/C3=C1C=CC=C3 |  |  |  |  |  |  |  |  |  |  |  | 108% | 100% | 95.5% | 98% | 95.9% | 90.3% | 98.7% | 106% | 94% | 77% | 16.4% | 98.7% | 99% | 107% | 104% | 114% | 103% | 107% | 95.3% | 99.3% | 66.6% | 21.2%
CC(Oc1ccc(O)cc1)(P(=O)(O)O)P(=O)(O)O | 94.2% | 115% | 91.7% | 92.8% | 99.5% | 93.5% | 91.3% | 85.8% | 103% | 42.6% | 17.3% | 91.6% | 88% | 87.4% | 83.7% | 94.8% | 101% | 90.4% | 85.7% | 78.5% | 73.7% | 14.6% | 94.8% | 100% | 87.9% | 93% | 84.9% | 95.8% | 92% | 91% | 83.9% | 64.8% | 14.4%
CC(C)[C@H](CO)Nc1nc(Nc2ccc(C(=O)O)c(Cl)c2)c2ncn(C(C)C)c2n1 | 116% | 126% | 122% | 132% | 128% | 118% | 109% | 108% | 79.4% | 107% | 29.6% | 119% | 116% | 118% | 128% | 134% | 131% | 131% | 115% | 87.3% | 111% | 36.1% | 122% | 125% | 123% | 137% | 124% | 140% | 127% | 122% | 90.7% | 137% | 44.1%
CN(C)c1nc(N(C)C)nc(N(C)C)n1 | 101% | 113% | 100% | 105% | 96.3% | 92% | 90.5% | 97.1% | 98.7% | 82.3% | 89.9% | 96.2% | 108% | 102% | 97.4% | 99% | 95.3% | 94.6% | 92.2% | 95.9% | 95.3% | 91% | 94% | 103% | 96% | 99% | 98.4% | 103% | 101% | 89.4% | 83.9% | 90.8% | 85.6%
